Experimental data: article PMC4066839 (MedChemComm, 2014)

Test system: C. neoformans
Assay: in vitro growth inhibition
Type: cell-based, Cryptococcus neoformans
Settings: highest tested concentration 20 μg/mL; NA = not active

In the case of `COc1ccc(-c2nc(C[C@H](N)C(=O)N[C@@H](CCCNC(=N)N)C(=O)NCc3ccccc3)c[nH]2)cc1` [Peptide 5d], the “C. neoformans IC50 (concentration that affords 50% inhibition of growth)” value is reported as “inactive”.
